Reference: ChEMBL document CHEMBL1136907, “Structural insight into human CK2alpha in complex with the potent inhibitor ellagic acid” (Bioorg Med Chem Lett, 2009)

Key:
[1] = Inhibition of rat liver CK2 by Lineweaver-Burke double reciprocal plot analysis
[2] = Inhibition of PKA
[3] = Inhibition of rat liver CK2 catalytic activity
[4] = Inhibition of PKC

- Ki [1]: 20 nM
- IC50 [2]: 2000 nM
- IC50 [3]: 40 nM
- IC50 [4]: 8000 nM
SMILES: O=c1oc2c(O)c(O)cc3c(=O)oc4c(O)c(O)cc1c4c23 [ELLAGIC ACID]
